We go through seven molecules from ChEMBL document CHEMBL4184098, “Discovery of novel benzo[b]thiophene tetrazoles as non-carboxylate GPR40 agonists” (Bioorg Med Chem Lett, 2018).

Series [1] is described as follows: Cmax in rat at 10 mg/kg, po. Format: ADME, organism-based. Particulars: in vivo. Set-up: dose 10 mg/kg, route oral.
The nature of series [2]: Oral bioavailability in rat at 10 mg/kg. The settings on record: in vivo. It is filed as ADME, organism-based.
Series [3] can be described thus: Volume of distribution at steady state in rat at 10 mg/kg, po or 2 mg/kg, iv. It is filed as ADME, organism-based. The settings on record: in vivo, read-out: Vdss.
Series [4] in a line: Plasma concentration in Sprague-Dawley rat at 10 mg/kg, po administered 40 mins prior to glucose-challenge measured at 160 mins post last dose during OGTT assay. Format: ADME, organism-based.
Series [5] in a line: Retention time of compound by LC-MS/MS analysis. Format: physicochemical.
Series [6] can be described thus: Plasma concentration in Sprague-Dawley rat at 1 mg/kg, po administered 40 mins prior to glucose-challenge measured at 160 mins post last dose during OGTT assay. Format: ADME, organism-based.
A short description of series [7]: Plasma concentration in Sprague-Dawley rat at 10 mg/kg, po administered 40 mins prior to glucose-challenge measured at 35 mins post last dose during OGTT assay. Format: ADME, organism-based.
A short description of series [8]: Plasma concentration in Sprague-Dawley rat at 10 mg/kg, po administered 40 mins prior to glucose-challenge measured at 95 mins post last dose during OGTT assay. Format: ADME, organism-based.
Series [9] can be described thus: Plasma concentration in Sprague-Dawley rat at 10 mg/kg, po administered 40 mins prior to glucose-challenge measured at 155 mins post last dose during OGTT assay. Format: ADME, organism-based.

Consider `CC#C[C@@H](Cc1nnn[nH]1)c1ccc(OCc2ccc3scc(-c4ccc(OCCCS(C)(=O)=O)cc4C)c3c2)cc1`, for which the concentration in [1] peaked (Cmax) at 417 ng/mL. Also, the bioavailability – broadly, dose-corrected exposure relative to a reference, in per cent – in series [2] stood at 56.8%. Also, the Vd in [3] worked out at 5.1 L/kg.
In the case of `CC#C[C@@H](Cc1nnn[nH]1)c1ccc(OCc2ccc3scc(-c4ccc(OCC5(C)CS(=O)(=O)C5)cc4C)c3c2)cc1`, in [1], the Cmax – broadly, the highest concentration seen after dosing – is 356 ng/mL. Besides, the bioavailability in series [2] stood at 50.3%. Besides, the Vd in series [3] was 5.9 L/kg.
`CC#C[C@@H](Cc1nnn[nH]1)c1ccc(OCc2ccc3sc(C(F)(F)F)c(-c4ccccc4C)c3c2)cc1` came in with a Cmax in [1] of 2520 ng/mL. Also, in series [4], the concentration at 160 min was 7.42 µM. In addition, the bioavailability in series [2] stood at 82.1%. The Vd in series [3] came out at 1.1 L/kg.
On to `CC#C[C@@H](Cc1nnn[nH]1)c1ccc(OCc2ccc3scc(-c4ccccc4C)c3c2)cc1`, for which the Retention_time in series [5] came out at 26.64 min. In series [1], this molecule yielded a peak concentration (Cmax) of 576 ng/mL. Also, the concentration at 160 min in series [4] worked out at 1.85 µM; in series [6], 320 nM. The same molecule returned a bioavailability in [2] of 43.2%. Also, in series [3], the Vd was 1.5 L/kg.
Turning to `CC#C[C@@H](Cc1nnn[nH]1)c1ccc(OCc2ccc3sc(Cl)c(-c4ccccc4C)c3c2)cc1`, the concentration in series [1] peaked (Cmax) at 4220 ng/mL. The concentration at 160 min in series [4] was found to be 8.09 µM. In [2], this molecule had a bioavailability of 72%. The Vd in series [3] came to 0.8 L/kg.
Turning to `CC#C[C@@H](Cc1nnn[nH]1)c1ccc(OCc2ccc3sc(C(F)(F)F)c(-c4ccc(OCCOC)cc4C)c3c2)cc1`, the concentration at 35 min in series [7] was 5.66 µM. Also, the concentration at 95 min in series [8] is 3.9 µM. In series [9], this molecule yielded a concentration at 155 min of 4.41 µM.
Take `CC#C[C@@H](Cc1nnn[nH]1)c1ccc(OCc2ccc3sc(F)c(-c4ccccc4C)c3c2)cc1`: the peak concentration (Cmax) in series [1] was 1590 ng/mL. The molecule also returned a concentration at 160 min in [4] of 3.74 µM. In series [2], this molecule came in with a bioavailability of 62.3%. In addition, in series [3], the Vd worked out at 2.2 L/kg.
